# Experiments:
# Type in all cases: functional
# K562 [1] = experiment: Cytotoxicity against human K562 cells assessed as cell growth level at 10 nM after 48 hrs by sulforhodamine B assay
# NCI-H522 [2] = experiment: Cytotoxicity against human NCI-H522 cells assessed as cell growth level at 100 nM after 48 hrs by sulforhodamine B assay
# MCF7 = experiment: Cytotoxicity against human MCF7 cells assessed as cell growth level at 100 nM after 48 hrs by sulforhodamine B assay
# UO-31 = experiment: Cytotoxicity against human UO31 cells after 48 hrs by sulforhodamine B assay; details: UO-31, 48 h
# HCT-116 = experiment: Cytotoxicity against human HCT116 cells assessed as cell growth level at 1 uM after 48 hrs by sulforhodamine B assay
# CAKI-1 = experiment: Cytotoxicity against human CAKI-1 cells after 48 hrs by sulforhodamine B assay; details: CAKI-1, 48 h
# KM12 [3] = experiment: Cytotoxicity against human KM12 cells assessed as cell growth level at 10 uM after 48 hrs by sulforhodamine B assay
# A549 [4] = experiment: Cytotoxicity against human A549/ATCC cells assessed as cell growth level at 1 uM after 48 hrs by sulforhodamine B assay
# NCI-H522 [5] = experiment: Cytotoxicity against human NCI-H522 cells assessed as cell growth level at 10 nM after 48 hrs by sulforhodamine B assay
# SK-MEL-28 = experiment: Cytotoxicity against human SK-MEL-28 cells assessed as cell growth level at 100 nM after 48 hrs by sulforhodamine B assay
# HT-29 = experiment: Cytotoxicity against human HT-29 cells assessed as cell growth level at 100 nM after 48 hrs by sulforhodamine B assay
# K562 [6] = experiment: Cytotoxicity against human K562 cells assessed as cell growth level at 10 uM after 48 hrs by sulforhodamine B assay
# U-251 = experiment: Cytotoxicity against human U251 cells assessed as cell growth level at 1 uM after 48 hrs by sulforhodamine B assay
# OVCAR-3 [7] = experiment: Cytotoxicity against human OVCAR3 cells assessed as cell growth level at 1 uM after 48 hrs by sulforhodamine B assay
# CCRF-CEM = experiment: Cytotoxicity against human CCRF-CEM cells assessed as cell growth level at 100 nM after 48 hrs by sulforhodamine B assay
# KM12 [8] = experiment: Cytotoxicity against human KM12 cells assessed as cell growth level at 1 uM after 48 hrs by sulforhodamine B assay
# OVCAR-5 = experiment: Cytotoxicity against human OVCAR5 cells assessed as cell growth level at 100 nM after 48 hrs by sulforhodamine B assay
# OVCAR-4 [9] = experiment: Cytotoxicity against human OVCAR4 cells assessed as cell growth level at 1 uM after 48 hrs by sulforhodamine B assay
# OVCAR-8 = experiment: Cytotoxicity against human OVCAR8 cells assessed as cell growth level at 1 uM after 48 hrs by sulforhodamine B assay
# A549 [10] = experiment: Cytotoxicity against human A549/ATCC cells after 48 hrs by sulforhodamine B assay; details: A549, 48 h
# IGROV-1 = experiment: Cytotoxicity against human IGROV1 cells assessed as cell growth level at 100 uM after 48 hrs by sulforhodamine B assay
# M14 [11] = experiment: Cytotoxicity against human M14 cells assessed as cell growth level at 10 nM after 48 hrs by sulforhodamine B assay
# T47D = experiment: Cytotoxicity against human T47D cells assessed as cell growth level at 100 nM after 48 hrs by sulforhodamine B assay
# HCT-15 = experiment: Cytotoxicity against human HCT15 cells after 48 hrs by sulforhodamine B assay; details: HCT-15, 48 h
# SR = experiment: Cytotoxicity against human SR cells after 48 hrs by sulforhodamine B assay
# ACHN = experiment: Cytotoxicity against human ACHN cells assessed as cell growth level at 10 nM after 48 hrs by sulforhodamine B assay
# SNB-75 [12] = experiment: Cytotoxicity against human SNB75 cells assessed as cell growth level at 10 nM after 48 hrs by sulforhodamine B assay
# OVCAR-4 [13] = experiment: Cytotoxicity against human OVCAR4 cells after 48 hrs by sulforhodamine B assay; details: OVCAR-4, 48 h
# LOX IMVI = experiment: Cytotoxicity against human LOXIMVI cells assessed as cell growth level at 100 nM after 48 hrs by sulforhodamine B assay
# RXF 393 = experiment: Cytotoxicity against human RXF393 cells assessed as cell growth level at 10 uM after 48 hrs by sulforhodamine B assay
# SNB-19 = experiment: Cytotoxicity against human SNB19 cells assessed as cell growth level at 10 uM after 48 hrs by sulforhodamine B assay
# SNB-75 [14] = experiment: Cytotoxicity against human SNB75 cells after 48 hrs by sulforhodamine B assay; details: SNB-75, 48 h
# SW-620 = experiment: Cytotoxicity against human SW620 cells after 48 hrs by sulforhodamine B assay; details: SW-620, 48 h
# M14 [15] = experiment: Cytotoxicity against human M14 cells after 48 hrs by sulforhodamine B assay; details: M14, 48 h
# NCI-H322M = experiment: Cytotoxicity against human NCI-H322M cells assessed as cell growth level at 1 uM after 48 hrs by sulforhodamine B assay
# OVCAR-3 [16] = experiment: Cytotoxicity against human OVCAR3 cells assessed as cell growth level at 10 uM after 48 hrs by sulforhodamine B assay
# [17] = read-out: LC50 (the source's name)
# [18] = read-out: pLC50 (the source's name) (converted)
smiles,measurement,setting,value
O=c1oc2ccccc2cc1-c1csc(N/N=C/c2c[nH]c3ccccc23)n1,Activity,K562 [1],95%
same,Activity,NCI-H522 [2],107%
same,Activity,MCF7,95%
same,GI50,UO-31; read-out: GI50,0.76 µM
same,CC50,UO-31; [17],5.47 µM
same,TGI,UO-31; read-out: TGI,2.23 µM
same,GI50,UO-31; read-out: pGI50 (converted),0.759 µM
same,CC50,UO-31; [18],5.5 µM
same,TGI,UO-31; read-out: pTGI (converted),2.24 µM
same,Activity,HCT-116,81%
same,GI50,CAKI-1; read-out: GI50,1.61 µM
same,CC50,CAKI-1; [17],> 100 µM
same,TGI,CAKI-1; read-out: TGI,4.65 µM
same,GI50,CAKI-1; read-out: pGI50 (converted),1.62 µM
same,CC50,CAKI-1; [18],> 100 µM
same,TGI,CAKI-1; read-out: pTGI (converted),4.68 µM
same,Activity,KM12 [3],-47.67%
same,Activity,A549 [4],68%
same,Activity,NCI-H522 [5],105%
same,Activity,SK-MEL-28,91%
same,Activity,HT-29,105%
same,Activity,K562 [6],0.99%
same,Activity,U-251,103%
same,Activity,OVCAR-3 [7],61%
same,Activity,CCRF-CEM,98%
same,Activity,KM12 [8],95%
same,Activity,OVCAR-5,99%
same,Activity,OVCAR-4 [9],85%
same,Activity,OVCAR-8,94%
same,GI50,A549 [10]; read-out: GI50,1.54 µM
same,CC50,A549 [10]; [17],> 100 µM
same,TGI,A549 [10]; read-out: TGI,5.3 µM
same,GI50,A549 [10]; read-out: pGI50 (converted),1.55 µM
same,CC50,A549 [10]; [18],> 100 µM
same,TGI,A549 [10]; read-out: pTGI,5.25 µM
same,Activity,IGROV-1,-71%
same,Activity,M14 [11],97%
same,Activity,T47D,96%
same,GI50,HCT-15; read-out: GI50,1.61 µM
same,CC50,HCT-15; [17],7.46 µM
same,TGI,HCT-15; read-out: TGI,3.47 µM
same,GI50,HCT-15; read-out: pGI50 (converted),1.62 µM
same,CC50,HCT-15; [18],7.41 µM
same,TGI,HCT-15; read-out: pTGI (converted),3.47 µM
same,GI50,SR; read-out: GI50,1.83 µM
same,LC50,SR; read-out: LC50,> 100 µM
same,TGI,SR; read-out: TGI,4.92 µM
same,GI50,SR; read-out: pGI50 (converted),1.82 µM
same,LC50,SR; read-out: pLC50 (converted),> 100 µM
same,TGI,SR; read-out: pTGI (converted),4.9 µM
same,Activity,ACHN,99%
same,Activity,SNB-75 [12],94%
same,GI50,OVCAR-4 [13]; read-out: GI50,1.37 µM
same,CC50,OVCAR-4 [13]; [17],> 100 µM
same,TGI,OVCAR-4 [13]; read-out: TGI,5.87 µM
same,GI50,OVCAR-4 [13]; read-out: pGI50 (converted),1.38 µM
same,CC50,OVCAR-4 [13]; [18],> 100 µM
same,TGI,OVCAR-4 [13]; read-out: pTGI (converted),5.89 µM
same,Activity,LOX IMVI,92%
same,Activity,RXF 393,25.19%
same,Activity,SNB-19,39.43%
same,GI50,SNB-75 [14]; read-out: GI50,2 µM
same,CC50,SNB-75 [14]; [17],> 100 µM
same,TGI,SNB-75 [14]; read-out: TGI,8.92 µM
same,GI50,SNB-75 [14]; read-out: pGI50 (converted),2 µM
same,CC50,SNB-75 [14]; [18],> 100 µM
same,TGI,SNB-75 [14]; read-out: pTGI (converted),8.91 µM
same,GI50,SW-620; read-out: GI50,2.19 µM
same,CC50,SW-620; [17],70.9 µM
same,TGI,SW-620; read-out: TGI,5.24 µM
same,GI50,SW-620; read-out: pGI50 (converted),2.19 µM
same,CC50,SW-620; [18],70.8 µM
same,TGI,SW-620; read-out: pTGI,5.25 µM
same,GI50,M14 [15]; read-out: GI50,1.95 µM
same,CC50,M14 [15]; [17],9.13 µM
same,TGI,M14 [15]; read-out: TGI,4.22 µM
same,GI50,M14 [15]; read-out: pGI50 (converted),1.95 µM
same,CC50,M14 [15]; [18],9.12 µM
same,TGI,M14 [15]; read-out: pTGI (converted),4.17 µM
same,Activity,NCI-H322M,92%
same,Activity,OVCAR-3 [16],-80.31%
